The text below walks through data of article PMC11921695 (BMC Cancer, 2025).

In data set [1] the test system is patients with HIV-associated KS. Nature of the data set: Phase I 3 + 3 dose escalation: dose limiting toxicity, MTD/RP2D. The conditions noted are these: for occurrence of DLT: cycle 1. The data set is classed as in vivo, human. The procedure:
The trial used a standard 3 + 3 rule-based dose escalation algorithm with four pre-defined dose levels. […] A dose of 75 mg once daily (od) provided a dose level below the starting dose should de-escalation be required.
The aim of the phase I component of the trial was to determine the maximum tolerated dose (MTD) of selumetinib in combination with ART, which was defined as the highest dose producing one or fewer DLT in six patients. This dose was defined as the recommended phase II dose (RP2D) for the subsequent phase II component of the trial. Patients recruited to phase I who received the RP2D as their initial dose were included in the phase II population for response analysis. Having completed six cycles of treatment, patients who responded to treatment were permitted to continue selumetinib with ART at the discretion of the treating physician. Patients concurrently received best supportive therapy according to institutional guidelines.
The occurrence of DLTs was used to evaluate the safety of each dose level and thereby determine the MTD which defined the RP2D.
• Haematological. • Absolute neutrophil count (ANC) < 1.0 × 10^9/L. • Febrile neutropenia (ANC < 1.0 × 10^9/L, fever ≥ 38 °C). • Platelets < 50 × 10^9/L. • Bleeding thought to be due to thrombocytopenia. • Non-haematological. • Diarrhoea ≥ grade 3 despite optimal loperamide use. • Rash ≥ grade 3. • Any grade 2 toxicity unacceptable to the patient that required a dose reduction. • Missing > 30% of treatment doses for toxicity reasons. • Any other grade 3 or 4 effects thought to be treatment related. • HIV control. • Clinically necessary change in ART drug levels due to detrimental alteration in HIV viral load and/or CD4 cell count.

Data set [2] shares this test system. Nature of the data set: Number of selumetinib cycles completed and reasons for discontinuation. The data set is classed as in vivo. The note with it: 6/16 participants. The source says: Reasons for discontinuation were reported in relation to the number of cycles received.

Molecules are shown by their SMILES. Where “and” joins values, the source holds several entries; their conditions need not be identical. Equal values may be shown once.

`Cn1cnc2c(F)c(Nc3ccc(Br)cc3Cl)c(C(=O)NOCCO)cc21` [selumetinib, 6-(4-Bromo-2-chloro-phenylamino)-7-fluro-3-methyl-3 H-benzoimidazole-5-carboxylic acid (2-hydroxy-ethoxy)-amide hydrogen sulphate]: the “nature of the DLT” value in data set [1] (75 mg bd, single event, possibly related, resolved with no sequelae) was “asymptomatic concurrent increase in serum amylase and raised eosinophils, both grade 3”. Further, the “occurrence of DLT” value in data set [1] (four patients starting 50 mg bd) was “None”; in data set [1] (six phase I patients starting 75 mg bd), “one and 1 out of 6”. For the same molecule, in data set [1] (selumetinib orally in combination with ART, highest dose producing one or fewer DLT in six patients), the “maximum tolerated dose (MTD) / recommended phase II dose (RP2D)” value is reported as 75 mg bd. The “participants who discontinued selumetinib due to toxicity before completing six cycles” value in data set [2] came to 37.5%.
